Tested on: p-IKKa levels in L363 (NIK translocated multiple myeloma) cells
Assay: Assay 2: Effect of compounds on p-IKKa levels in L363 (NIK translocated multiple myeloma) cells
Type: cell-based
Details: Homo sapiens, L-363, 6 h, read-out: Assay 2 IC50 (nM), p-IKKa (Ser 176/180) in BAFF stimulated L363 cells with MG132, 6 h; average if tested more than once
Procedure, shortened: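 Read-out is p-IKKa Ser176/180 by AlphaLISA SureFire in lysates. Cells were BAFF-primed (250 ng/ml) overnight or left unstimulated, then exposed 6 h at 37 °C to compound with MG132 (10 μM), 0.3% DMSO. IC50 from sigmoidal curve fit, normalized between stimulated and unstimulated controls.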

| SMILES | IC50 [nM] |
| --- | --- |
| Cc1cc(Nc2nccc(-c3cccc(-c4cc([C@]5(O)CCN(C)C5=O)on4)n3)n2)cc(C)n1 [Example 283, (R)-3-(3-(6-(2-((2,6-Dimethylpyridin-4-yl)amino)pyrimidin-4-yl)pyridin-2-yl)isoxazol-5-yl)-3-hydroxy-1-methylpyrrolidin-2-one] | < 50 |
| CN1CC[C@@](O)(c2cn(-c3cccc(-c4ccnc(Nc5ccn(CC(F)F)n5)n4)n3)nn2)C1=O [Example 214, (R)-3-(1-(6-(2-((1-(2,2-Difluoroethyl)-1H-pyrazol-3-yl)amino)pyrimidin-4-yl)pyridin-2-yl)-1H-1,2,3-triazol-4-yl)-3-hydroxy-1-methylpyrrolidin-2-one] | < 50 |
| CCn1ccc(Nc2nccc(-c3cccc(-n4cc([C@]5(O)CCN(C)C5=O)nn4)n3)n2)n1 [Example 253, (3R)-3-[1-[6-[2-[(1-Ethylpyrazol-3-yl)amino]pyrimidin-4-yl]-2-pyridyl]triazol-4-yl]-3-hydroxy-1-methyl-pyrrolidin-2-one] | < 50 |
| Cc1cc(-c2cc([C@]3(O)CCN(C)C3=O)on2)nc(-c2ccnc(Nc3ccn(C)n3)n2)c1 [Example 100, (R)-3-Hydroxy-1-methyl-3-(3-(4-methyl-6-(2-((1-methyl-1H-pyrazol-3-yl)amino)pyrimidin-4-yl)pyridin-2-yl)isoxazol-5-yl)pyrrolidin-2-one] | < 50 |
| CN1CC[C@@](O)(c2cc(-c3cccc(-c4ccnc(Nc5ccn(CCN)n5)n4)n3)no2)C1=O [Example 204, (R)-3-(3-(6-(2-((1-(2-Aminoethyl)-1H-pyrazol-3-yl)amino)pyrimidin-4-yl)pyridin-2-yl)isoxazol-5-yl)-3-hydroxy-1-methylpyrrolidin-2-one] | 50 to 500 |
| C[C@H](Nc1nccc(-c2cccc(-c3cc([C@]4(O)CCN(C)C4=O)on3)n2)n1)C(=O)N1CC(F)(F)C1 [Example 170, (R)-3-(3-(6-(2-(((S)-1-(3,3-Difluoroazetidin-1-yl)-1-oxopropan-2-yl)amino)pyrimidin-4-yl)pyridin-2-yl)isoxazol-5-yl)-3-hydroxy-1-methylpyrrolidin-2-one] | 50 to 500 |
| C[C@H]1Cn2nc(Nc3nccc(-c4cccc(-c5cc([C@]6(O)CCN(C)C6=O)on5)n4)n3)cc2CO1 (single isomer, unassigned) [Example 115, (R)-3-Hydroxy-1-methyl-3-(3-(6-(2-(((*S)-6-methyl-6,7-dihydro-4H-pyrazolo[5,1-c][1,4]oxazin-2-yl)amino)pyrimidin-4-yl)pyridin-2-yl)isoxazol-5-yl)pyrrolidin-2-one] | 50 to 500 |
| Cc1cc(Nc2nccc(-c3cccc(-c4cc([C@@]5(O)C(=O)N(C)CC5(F)F)on4)n3)n2)ccn1 [Example 408, (R)-4,4-Difluoro-3-hydroxy-1-methyl-3-(3-(6-(2-((2-methylpyridin-4-yl)amino)pyrimidin-4-yl)pyridin-2-yl)isoxazol-5-yl)pyrrolidin-2-one] | < 50 |
| CN1CC[C@@](O)(c2cc(-c3cccc(-c4ccnc(N[C@H]5CCCC[C@H]5O)n4)n3)no2)C1=O (single isomer, unassigned) [Example 337] | > 500 |
| CN1CC[C@@](O)(c2cc(-c3cccc(-c4ccnc(NC5CCN(C6CC6)C5)n4)n3)no2)C1=O (mixture of isomers) [Example 448, (3R)-3-(3-(6-(2-((1-Cyclopropylpyrrolidin-3-yl)amino)pyrimidin-4-yl)pyridin-2-yl)isoxazol-5-yl)-3-hydroxy-1-methylpyrrolidin-2-one] | > 500 |
| Cc1nnc(Nc2nccc(-c3cccc(-c4cc([C@]5(O)CCN(C)C5=O)on4)n3)n2)o1 [Example 319, (R)-3-Hydroxy-1-methyl-3-(3-(6-(2-((5-methyl-1,3,4-oxadiazol-2-yl)amino)pyrimidin-4-yl)pyridin-2-yl)isoxazol-5-yl)pyrrolidin-2-one] | > 500 |
| CN1C(=O)[C@](O)(c2cc(-c3cccc(-c4ccnc(Nc5ccn(C)n5)n4)n3)no2)[C@H]2C[C@H]21 [Example 93, (1R,4R,5S)-4-Hydroxy-2-methyl-4-(3-(6-(2-((1-methyl-1H-pyrazol-3-yl)amino)pyrimidin-4-yl)pyridin-2-yl)isoxazol-5-yl)-2-azabicyclo[3.1.0]hexan-3-one] | 50 to 500 |
| Cc1cc(Nc2nccc(-c3cccc(-c4cc([C@]5(O)CCN(C)C5=O)no4)n3)n2)ccn1 [Example 213, (R)-3-Hydroxy-1-methyl-3-(5-(6-(2-((2-methylpyridin-4-yl)amino)pyrimidin-4-yl)pyridin-2-yl)isoxazol-3-yl)pyrrolidin-2-one] | 50 to 500 |
| CN1CC[C@@](O)(c2cc(-c3cccc(-c4ccnc(Nc5cnn(CC(C)(C)O)c5)n4)n3)no2)C1=O [Example 64, (R)-3-Hydroxy-3-(3-(6-(2-((1-(2-hydroxy-2-methylpropyl)-1H-pyrazol-4-yl)amino)pyrimidin-4-yl)pyridin-2-yl)isoxazol-5-yl)-1-methylpyrrolidin-2-one] | < 50 |
| CN1CC[C@@](O)(c2cc(-c3cccc(-c4ccnc(Nc5cnn6c5OCC(C)(C)C6)n4)n3)no2)C1=O [Example 444, (R)-3-(3-(6-(2-((6,6-Dimethyl-6,7-dihydro-5H-pyrazolo[5,1-b][1,3]oxazin-3-yl)amino)pyrimidin-4-yl)pyridin-2-yl)isoxazol-5-yl)-3-hydroxy-1-methylpyrrolidin-2-one] | < 50 |
| Cc1cn[nH]c1Nc1nccc(-c2cccc(-c3cc([C@]4(O)CCN(C)C4=O)on3)n2)n1 [Example 34, (R)-3-Hydroxy-1-methyl-3-(3-(6-(2-((4-methyl-1H-pyrazol-5-yl)amino)pyrimidin-4-yl)pyridin-2-yl)isoxazol-5-yl)pyrrolidin-2-one] | 50 to 500 |
| CC1OCCn2ncc(Nc3nccc(-c4cccc(-c5cc([C@]6(O)CCN(C)C6=O)on5)n4)n3)c21 (single isomer, unassigned) [Example 195, (R)-3-Hydroxy-1-methyl-3-(3-(6-(2-(((*R)-4-methyl-6,7-dihydro-4H-pyrazolo[5,1-c][1,4]oxazin-3-yl)amino)pyrimidin-4-yl)pyridin-2-yl)isoxazol-5-yl)pyrrolidin-2-one] | < 50 |
| Cc1ncccc1Nc1nccc(-c2cccc(-c3cc([C@]4(O)CCN(C)C4=O)on3)n2)n1 [Example 197, (R)-3-Hydroxy-1-methyl-3-(3-(6-(2-((2-methylpyridin-3-yl)amino)pyrimidin-4-yl)pyridin-2-yl)isoxazol-5-yl)pyrrolidin-2-one] | < 50 |
| C[C@H](Nc1nccc(-c2cccc(-c3cc([C@]4(O)CCN(C)C4=O)on3)n2)n1)c1cn[nH]c1 (single isomer, unassigned) [Example 149] | 50 to 500 |
| CN1CC[C@@](O)(c2cc(-c3cncc(-c4ccnc(Nc5ccn(C)n5)n4)n3)no2)C1=O [Example 95, (R)-3-Hydroxy-1-methyl-3-(3-(6-(2-((1-methyl-1H-pyrazol-3-yl)amino)pyrimidin-4-yl)pyrazin-2-yl)isoxazol-5-yl)pyrrolidin-2-one] | 50 to 500 |
| CCn1cc(Nc2nccc(-c3cccc(-c4cc([C@@]5(O)C(=O)N(C)CC5(F)F)on4)n3)n2)cn1 [Example 261, (R)-3-(3-(6-(2-((1-Ethyl-1H-pyrazol-4-yl)amino)pyrimidin-4-yl)pyridin-2-yl)isoxazol-5-yl)-4,4-difluoro-3-hydroxy-1-methylpyrrolidin-2-one] | < 50 |
| CCn1ncc(Nc2nccc(-c3cccc(-c4cc([C@]5(O)CCN(C)C5=O)on4)n3)n2)c1OC [Example 220, (R)-3-(3-(6-(2-((1-Ethyl-5-methoxy-1H-pyrazol-4-yl)amino)pyrimidin-4-yl)pyridin-2-yl)isoxazol-5-yl)-3-hydroxy-1-methylpyrrolidin-2-one] | 50 to 500 |
| CN1CC[C@@](O)(c2cc(-c3cccc(-c4ccnc(Nc5cnn(C6CNC6)c5)n4)n3)no2)C1=O [Example 215, (R)-3-(3-(6-(2-((1-(Azetidin-3-yl)-1H-pyrazol-4-yl)amino)pyrimidin-4-yl)pyridin-2-yl)isoxazol-5-yl)-3-hydroxy-1-methylpyrrolidin-2-one] | > 500 |
| CN1CC[C@@](O)(c2cc(-c3cccc(-c4ccnc(Nc5cc(OC(F)F)n(C)n5)n4)c3)no2)C1=O [Example 412, (R)-3-(3-(3-(2-((5-(Difluoromethoxy)-1-methyl-1H-pyrazol-3-yl)amino)pyrimidin-4-yl)phenyl)isoxazol-5-yl)-3-hydroxy-1-methylpyrrolidin-2-one] | 50 to 500 |
| CN1CC[C@@](O)(c2cc(-c3cccc(-c4ccnc(Nc5cnn(CCN)c5)n4)n3)no2)C1=O [Example 125, (R)-3-(3-(6-(2-((1-(2-Aminoethyl)-1H-pyrazol-4-yl)amino)pyrimidin-4-yl)pyridin-2-yl)isoxazol-5-yl)-3-hydroxy-1-methylpyrrolidin-2-one] | 50 to 500 |
| CN1CC[C@@](O)(c2cc(-c3cccc(-c4ccnc(Nc5ccnc6c5CCO6)n4)n3)no2)C1=O [Example 257, (R)-3-(3-(6-(2-((2,3-Dihydrofuro[2,3-b]pyridin-4-yl)amino)pyrimidin-4-yl)pyridin-2-yl)isoxazol-5-yl)-3-hydroxy-1-methylpyrrolidin-2-one] | < 50 |
| C[C@H](Nc1nccc(-c2cccc(-c3cc([C@]4(O)CCN(C)C4=O)on3)n2)n1)C(N)=O [Example 182, (S)-2-((4-(6-(5-((R)-3-Hydroxy-1-methyl-2-oxopyrrolidin-3-yl)isoxazol-3-yl)pyridin-2-yl)pyrimidin-2-yl)amino)propanamide] | 50 to 500 |
| Cc1nn(CCN(C)C)c(C)c1Nc1nccc(-c2cccc(-c3cc([C@]4(O)CCN(C)C4=O)on3)n2)n1 [Example 278, (R)-3-(3-(6-(2-((1-(2-(Dimethylamino)ethyl)-3,5-dimethyl-1H-pyrazol-4-yl)amino)pyrimidin-4-yl)pyridin-2-yl)isoxazol-5-yl)-3-hydroxy-1-methylpyrrolidin-2-one] | > 500 |
| C[C@H](Nc1nccc(-c2cccc(-c3cc([C@]4(O)CCN(C)C4=O)on3)n2)n1)c1ccncc1 (single isomer, unassigned) [Example 155] | 50 to 500 |

Source: patent publication US20250282768A1 (Janssen Pharmaceutica NV, priority 2022, published 2025)
